The values that follow come from patent US12472193B2, “Methods and compositions for treating and preventing respiratory related diseases and conditions with xylitol-headgroup lipid analogs” (National Jewish Health, priority 2017, dated 2025).

Read-outs that look alike come from different tables or passages of the source.

One data set deals with RSV. The data set is described as follows: 18:1 DEPX interference with RSV infection in vivo (BALB/c mice). Also noted: species or system mouse. The settings on record: 250 μg 18:1 DEPX intranasal, day 6.
The procedure of data set [1]: 18:1 DEPX was prepared as liposomes so that 500 μg of lipid was delivered in a 50 μL volume. 6-week old female BALB/C mice were purchased from Jackson laboratories and divided into groups of 5. Each group was inoculated with 500 μg of 18:1 DEPX by intranasal inoculation. Groups of 5 mice were sacrificed and lavaged at the following time points: 0 hours, 3 hours, 6 hours, 18 hours and 24 hours. Lipids were extracted from mice BALF by Bligh-Dyer (“A rapid method of total lipid extraction and purification.,” Can. J. Biochem. Physiol., vol. 37, no. 8, pp. 911-7, August 1959), and quantified by phosphorus analysis. 150 nmol of lipid extracted from each mouse was separated by lipid class utilizing the Touchstone solvent system (refer to methods) and thin layer chromatography. 0.1% ANSA and UV light was used to visualize lipids from the thin layer chromatogram. Individual xylitol lipid bands were cut out from the silica and quantified by phosphorus analysis.
To determine how quickly 18:1 DEPX turns over in the mouse lung, female BALB/C mice that were 6-8 weeks old were inoculated with 500 μg of lipid by intranasal delivery in a 50 μL volume. Mice were sacrificed at time periods of, 0 hours, 3 hours, 6 hours, 18 hours and 24 hours following lipid delivery and bronchoalveolar lavage fluid (BALF) was collected. Lipids were extracted from BALF by the Bligh-Dyer method and total lipid extracts were quantified by phosphorus analysis (G. Rouser, et al., “Quantitative analysis of phospholipids by thin-layer chromatography and phosphorus analysis of spots.,” Lipids, vol. 1, no. 1, pp. 85-6, January 1966). To separate the various lipid classes present in BALF, thin layer chromatography on a Merck Silica 60 glass plate with a touchstone solvent system was utilized. The silica plate was scored in lanes according to number of samples, 150 nmol of total lipid was spotted onto each lane and solvent was developed for 90 minutes. The plate was air dried and sprayed with 0.1% ANSA-water then exposed to UV light to reveal migration of lipids on the plate. The spots corresponding to xylitol lipids were cut out and quantified by phosphorous analysis.
Because toxicity of the synthetic phospholipid, 18:1 DEPX, is unknown lower levels of lipid were delivered to mice to determine if the diether lipid persists in the mouse lung after 24 hours. The previous experiment was repeated with 250 μg, 150 μg and 75 μg 18:1 DEPX delivered to mice. 250 μg was used as a starting point for mice sacrificed at 0 hours following lipid delivery. Subsequently groups of mice given 250 μg, 150 μg and 75 μg of 18:1 DEPX were sacrificed 24 hours following intranasal delivery of lipid. Mouse lungs were lavaged 2 times with 1 mL PBS. Total lipids were extracted by the Bligh-Dyer method from BALF and separated on a Merck Silica 60 glass plate using a touchstone solvent system for separation of lipids by headgroup. Xylitol lipid spots were excised from the silica and quantified by phosphorus assay.

With `CCCCCCCCC=CCCCCCCCCOCC(COP(=O)(O)OCC(O)C(O)C(O)CO)OCCCCCCCCC=CCCCCCCCC` (mixture of isomers) [18:1 DEPX, sn-1-O-octadecenyl, sn-2-O-octadecenyl sn-3 glycerol phosphoxylitol], the “reduction of viral burden by a factor of (qRT-PCR, FIGS. 12A and 12B)” value in the data set with RSV is listed as 6.2. The “xylitol lipid recovered from BALF” value in data set [1] (75 μg intranasal, 24 hours) was 10 µg; in data set [1] (150 μg intranasal, 24 hours), 15 µg; in data set [1] (250 μg intranasal, 0 hours) it was “Around 40 μg”; in data set [1] (250 μg intranasal, 24 hours), “around 20 μg”. The “18:1 DEPX detected in recovered lavage” value in data set [1] (500 μg intranasal, 24 hours) is on record as “about 20 nmol”. Further, in data set [1] (500 μg intranasal, time zero), the “18:1 DEPX in 150 nmol of total BALF lipid loaded” value is on record as “approximately 42 nmol”. Further, the “half-life in the mouse lung” value in data set [1] (intranasal) is reported as “around 24 hours”. The “starting material recovered after 24 hours” value in data set [1] (mice) was 50%.
